# Reference: PubChem BioAssay (NCI)
#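 These data come from cells grown in 96-well plates and exposed to compound for 48 hours at five concentrations. GI50: concentration for 50% inhibition of growth. TGI denotes the concentration required for complete inhibition of growth.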
# Columns and labels:
# Assay in all cases: NCI-60 cell line screen, 48 h
# SW-620 colon = system: SW-620 colon
# OVCAR-4 ovarian = system: OVCAR-4 ovarian
# RXF 393 renal = system: RXF 393 renal
# MDA-MB-231 breast = system: MDA-MB-231 breast
# RPMI-8226 leukemia = system: RPMI-8226 leukemia
# HS 578T breast = system: HS 578T breast
# A498 renal = system: A498 renal
# HOP-62 NSCLC = system: HOP-62 NSCLC
# BT-549 breast = system: BT-549 breast
# CCRF-CEM leukemia = system: CCRF-CEM leukemia
Structure (SMILES),TGI (SW-620 colon),TGI (OVCAR-4 ovarian),TGI (RXF 393 renal),TGI (MDA-MB-231 breast),TGI (RPMI-8226 leukemia),TGI (HS 578T breast),TGI (A498 renal),TGI (HOP-62 NSCLC),TGI (BT-549 breast),TGI (CCRF-CEM leukemia),GI50 (RPMI-8226 leukemia),GI50 (A498 renal),GI50 (RXF 393 renal),GI50 (HS 578T breast),GI50 (HOP-62 NSCLC),GI50 (CCRF-CEM leukemia),GI50 (BT-549 breast)
COc1cccc(N=N/C(=N\NC(=O)c2ccc(C)cc2)c2ccc(N(CCC#N)CCC#N)cc2C)c1,> 100 µM,> 100 µM,> 100 µM,> 100 µM,> 100 µM,> 100 µM,> 100 µM,> 100 µM,> 100 µM,,,,,,,,
CCN(CC)C(=S)SS(=O)(=O)c1cccc(N)c1,> 100 µM,> 100 µM,> 100 µM,> 100 µM,> 100 µM,> 100 µM,> 100 µM,> 100 µM,> 100 µM,,,,,,,,
O=C(O)COc1cc(-c2ccccc2)nc2cc(F)ccc12,> 100 µM,> 100 µM,,> 100 µM,> 100 µM,> 100 µM,> 100 µM,> 100 µM,> 100 µM,> 100 µM,,,,,,,
C/C(=N\NC(=S)N(C)C)c1cccnn1,> 100 µM,> 100 µM,,> 100 µM,> 100 µM,> 100 µM,10.7 µM,> 100 µM,> 100 µM,,,,,,,,
O=c1[nH]n(Cc2ccccc2)c2ccc([N+](=O)[O-])cc12,> 100 µM,> 100 µM,> 100 µM,78.6 µM,> 100 µM,> 100 µM,> 100 µM,> 100 µM,,> 100 µM,,,,,,,
CCCSc1ccc2[nH]c(N3C(=O)/C(=C/c4ccccc4)N=C3c3ccccc3)cc2c1,> 50 µM,> 50 µM,> 50 µM,,42.9 µM,> 50 µM,> 50 µM,,> 50 µM,> 50 µM,,,,,,,
Cc1cc2c([nH]c3ccccc32)c(O)c1-c1c(C)cc2c([nH]c3ccccc32)c1O,50.8 µM,28.8 µM,23.1 µM,33 µM,18.5 µM,32.7 µM,29.4 µM,31.5 µM,33.6 µM,,3.85 µM,15.9 µM,,,,,
O=c1c(-c2ccccc2)c(SCCO)n(-c2ccccc2)c(=S)n1-c1ccccc1,> 100 µM,> 100 µM,,,> 100 µM,> 100 µM,,> 100 µM,> 100 µM,> 100 µM,,,,,,,
O=C1NC(=O)C(C(CC(=O)c2ccc(Cl)cc2)c2ccc(Cl)cc2)C(=O)N1 (centres undefined),> 100 µM,> 100 µM,,> 100 µM,> 100 µM,> 100 µM,> 100 µM,> 100 µM,> 100 µM,> 100 µM,,,,,,,
CC(C)(C)[Si](C)(C)OCc1cccc(OCCOc2cccc(CO[Si](C)(C)C(C)(C)C)c2[N+](=O)[O-])c1[N+](=O)[O-],> 100 µM,> 100 µM,> 100 µM,,,> 100 µM,> 100 µM,> 100 µM,> 100 µM,> 100 µM,,,,,,,
CN1CC2=C(NC(=S)NC2c2ccccc2)/C(=C/c2ccccc2)C1 (centres undefined),> 100 µM,,,> 10 µM,> 100 µM,> 100 µM,> 100 µM,> 100 µM,> 100 µM,> 100 µM,,,,,,,
C=C(C)[C@H]1C2=CC(C)=C(O2)[C@@H](O[C@@H]2c3oc(cc3C)[C@H](C(=C)C)[C@H]3C=C(CC[C@H]2C(=C)C)C(=O)O3)[C@H](C(=C)C)CCC2=C[C@H]1OC2=O,> 100 µM,> 100 µM,,> 100 µM,> 100 µM,> 100 µM,> 100 µM,> 100 µM,> 100 µM,> 100 µM,,,,,,,
CC(C)/C(Cl)=N\OC(NC(=O)P(=O)(c1ccccc1)c1ccccc1)(C(F)(F)F)C(F)(F)F,53.9 µM,25.1 µM,34 µM,34.4 µM,37.5 µM,> 100 µM,28.6 µM,32.9 µM,,22.5 µM,,,,,,,
CCOC(=O)Nn1c(CC#N)nnc1Cc1ccccc1,> 100 µM,,> 100 µM,> 100 µM,> 100 µM,> 100 µM,,> 100 µM,> 100 µM,,,,,,,,
CCc1cc2c(c3c1CCCC3=O)CC1(Cc3ccc(C(=O)OC)cc3C1)C2 (centres undefined),> 100 µM,> 100 µM,> 100 µM,> 100 µM,91 µM,> 100 µM,> 100 µM,> 100 µM,,91.4 µM,,,,,,,
Cc1nc(N)c(N2CCN(CN)CC2)c(=O)[nH]1,> 100 µM,> 100 µM,,> 100 µM,> 100 µM,> 100 µM,> 100 µM,> 100 µM,> 100 µM,> 100 µM,,,,,,,
Cc1ccc(S(=O)CC(CF)OCn2cc(C)c(=O)[nH]c2=O)cc1 (centres undefined),> 100 µM,> 100 µM,,> 100 µM,> 100 µM,> 100 µM,,> 100 µM,> 100 µM,,,,,,,,
CCN=C1C=CC(=C(c2ccc(N(CC)CC)cc2)c2ccc(N(CC)CC)cc2)c2ccccc21,,,0.384 µM,,0.0702 µM,0.533 µM,0.444 µM,0.846 µM,0.602 µM,1.52 µM,0.0233 µM,0.0692 µM,0.0585 µM,0.0408 µM,0.159 µM,0.0471 µM,0.107 µM
